Values of other authors, collected in US6403571B2, “Combination therapy for reducing the risks associated with cardiovascular disease” (Merck & Co., Inc., priority 1996, dated 2002).
Structures can show the parent of a compound that is named as a salt. Where a SMILES comes first, the peptide text is derived from it. Bridges are numbered along the chain shown (N, C = ends). [ ]: non-standard residue; d: D form. hArg = N=C(N)NCCCC[C@H](N)C(=O)O; Mpa = O=C(O)CCS

Experiments:
GP IIb/IIIa [1] = target: T1, GP IIb/IIIa (Homo sapiens, UniProt P05106+P08514)
GP IIb/IIIa [2] = target: T1, GP IIb/IIIa; settings: for selectivity for GP IIb/IIIa: administered intravenously
αvβ3 = αvβ3 (Homo sapiens, UniProt P05106+P06756)
Sequence of αvβ3 (P06756 31-889 limits assumed): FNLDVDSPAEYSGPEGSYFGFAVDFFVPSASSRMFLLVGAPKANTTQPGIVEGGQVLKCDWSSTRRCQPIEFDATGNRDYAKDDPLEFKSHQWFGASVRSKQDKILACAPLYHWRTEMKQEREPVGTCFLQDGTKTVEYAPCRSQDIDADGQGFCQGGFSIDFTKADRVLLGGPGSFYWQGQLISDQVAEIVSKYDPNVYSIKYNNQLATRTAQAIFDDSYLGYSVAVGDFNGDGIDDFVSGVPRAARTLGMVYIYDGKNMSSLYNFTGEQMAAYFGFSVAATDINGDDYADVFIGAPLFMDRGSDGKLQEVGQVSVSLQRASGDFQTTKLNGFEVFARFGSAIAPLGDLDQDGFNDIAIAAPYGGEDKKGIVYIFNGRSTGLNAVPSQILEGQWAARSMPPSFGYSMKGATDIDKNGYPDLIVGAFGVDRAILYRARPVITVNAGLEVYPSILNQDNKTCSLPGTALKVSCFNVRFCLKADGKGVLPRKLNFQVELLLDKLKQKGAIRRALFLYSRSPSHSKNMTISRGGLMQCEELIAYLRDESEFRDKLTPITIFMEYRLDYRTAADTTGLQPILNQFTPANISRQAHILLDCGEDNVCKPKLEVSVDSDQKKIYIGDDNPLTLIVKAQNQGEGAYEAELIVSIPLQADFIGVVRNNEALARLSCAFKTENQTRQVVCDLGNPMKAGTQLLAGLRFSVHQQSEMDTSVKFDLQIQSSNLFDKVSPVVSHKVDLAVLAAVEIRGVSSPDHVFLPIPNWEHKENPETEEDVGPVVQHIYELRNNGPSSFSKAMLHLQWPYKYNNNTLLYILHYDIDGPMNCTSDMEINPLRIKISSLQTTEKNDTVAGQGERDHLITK
Sequence of αvβ3 (P06756 891-1048 partner limits assumed): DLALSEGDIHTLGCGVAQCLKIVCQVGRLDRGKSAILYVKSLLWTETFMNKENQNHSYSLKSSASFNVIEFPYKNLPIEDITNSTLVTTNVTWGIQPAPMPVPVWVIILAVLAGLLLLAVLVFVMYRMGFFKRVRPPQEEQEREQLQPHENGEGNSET
Sequence of αvβ3 (P05106 27-788): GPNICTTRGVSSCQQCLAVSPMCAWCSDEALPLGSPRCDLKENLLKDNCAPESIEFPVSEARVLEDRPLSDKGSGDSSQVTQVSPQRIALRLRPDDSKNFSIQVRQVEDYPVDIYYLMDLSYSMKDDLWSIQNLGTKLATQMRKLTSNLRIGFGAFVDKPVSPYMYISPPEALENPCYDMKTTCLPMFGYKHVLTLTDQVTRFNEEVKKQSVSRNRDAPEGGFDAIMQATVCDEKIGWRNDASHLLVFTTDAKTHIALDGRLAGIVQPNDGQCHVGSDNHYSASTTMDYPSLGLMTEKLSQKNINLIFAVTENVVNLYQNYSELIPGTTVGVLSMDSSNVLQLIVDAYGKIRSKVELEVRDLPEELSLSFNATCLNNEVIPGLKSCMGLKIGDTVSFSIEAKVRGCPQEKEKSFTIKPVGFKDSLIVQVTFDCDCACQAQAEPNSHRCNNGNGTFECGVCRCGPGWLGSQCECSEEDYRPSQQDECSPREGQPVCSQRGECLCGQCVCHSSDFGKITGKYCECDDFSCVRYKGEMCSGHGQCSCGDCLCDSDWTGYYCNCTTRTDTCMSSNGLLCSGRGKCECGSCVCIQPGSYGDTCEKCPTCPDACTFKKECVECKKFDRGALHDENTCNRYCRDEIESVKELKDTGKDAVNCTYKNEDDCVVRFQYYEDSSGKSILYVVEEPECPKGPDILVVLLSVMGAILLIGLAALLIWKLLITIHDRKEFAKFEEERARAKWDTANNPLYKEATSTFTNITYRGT

[3] = prodrug, requires biotransformation in vivo to its active form

Compound: 7E3: monoclonal antibody which blocks the GP IIb/IIIa receptor and the αvβ3 receptor [Compound 7E3]
- need for transfusion (GP IIb/IIIa [1]; 7E3 added to heparin and aspirin, increasing from 3%): 6%
- incidence of patients with decreased hematocrit (GP IIb/IIIa [1]; 7E3 added to heparin and aspirin, increasing from 7%): 15%
- combined endpoints of death, non-fatal myocardial infarction (MI) and need for urgent revascularization (GP IIb/IIIa [1]; 7E3 added to standard regime of heparin and aspirin, decrease from 12.8% without blockade): 8.3%

Compound: N=C(N)NCCCC[C@@H]1NC(=O)CCSSC[C@@H](C(N)=O)NC(=O)[C@@H]2CCCN2C(=O)[C@H](Cc2c[nH]c3ccccc23)NC(=O)[C@H](CC(=O)O)NC(=O)CNC1=O [Integrelin] ([Mpa][hArg]GDWPC-NH2; disulfide 1-7)
- effect on ligand binding to GP IIb/IIIa (GP IIb/IIIa [2]): inhibits ligand binding
- effect on ligand binding to αvβ3 (αvβ3): very little effect

Compound: CCCCS(=O)(=O)N[C@@H](Cc1ccc(OCCCCC2CCNCC2)cc1)C(=O)O [MK-383, 2-S-(n-Butylsulfonylamino)-3[4-piperidin-4-yl)butyloxyphenyl]propionic acid hydrochloride]
- selectivity for GP IIb/IIIa (GP IIb/IIIa [2]): selective

Compound: N=C(N)c1ccc(C(=O)N[C@@H](Cc2ccc(O)cc2)C(=O)N2CCC(OCC(=O)O)CC2)cc1 [Ro 44-9883]
- selectivity for GP IIb/IIIa (GP IIb/IIIa [2]): selective

Compound: C#C[C@H](CC(=O)OCC)NC(=O)CCC(=O)Nc1ccc(C(=N)N)cc1 [SC54684, ethyl 3-[[4-[[4-(aminoiminomethyl)phenyl]amino]-1,4-dioxobutyl]amino]-4-pentynoate]
- oral bioavailability [3]: high oral bioavailability
